The source of these data is patent publication US4622317A, “Treatment of skin over androgenicity using compositions containing pregnenolone” (priority 1985, dated 1986).

For data set [1], the system named is skin / body of acne patients. To be noted: cited from earlier work; for skin irritation and peeling: topical application.
Data set [2] has as its system skin. To be noted: studies by the inventor and other laboratories; cited from earlier work.
For data set [3] the following is noted: background statement; cited from earlier work.
The test system of data set [4] is female hamster flank organs. Nature of the data set: stimulation of female hamster flank organs by topical DHA. In kind it is in vivo. To be noted: 12 μg, 60 μg, 120 μg to right side, 7 days/week for 6 weeks, female hamsters. The text has this: (§1) The effects of hormones and hormonally active substances on sebaceous glands can also be evaluated using the Syrian hamster flank organs as an animal model. The results of experiments using hamsters are valuable inasmuch as they can provide in vivo confirmation of the in vitro experiments like those described above using rat preputial gland. The flank organs, also called the costovertebral spot or the costovertebral organ, are sebaceous structures located on each flank of the animal. Like the sebaceous glands of the human and the preputial gland of the rat they are androgen dependent (Voigt and Hsia, 1973; Gomez and Frost, 1969; Frost and Gomez, 1973).
The organ in the mature male hamster measures approximately 8 mm in diameter, is heavily pigmented and is covered with coarse dark hairs (Voigt and Hsia, 1973). The organ of the female animal is undeveloped, measuring about 2 mm in diameter, lightly pigmented, without dark hairs, and is at times difficult to see. The anatomical and histological changes in this organ in response to androgens have been described by Hamilton and Montagna (1950).
Before testing the anti-androgenic properties of pregnenolone on hamster flank organs and relying on the results, a centrally important question therefore needed to be answered--Could DHA be shown to stimulate growth in the flank organs? […]

The subject of data set [5] is flank organ of female hamsters. Conditions: topical, 5 days/week for 2 weeks; cited from earlier work.
In data set [6] the test system is 3βHSD (female hamster flank organs). The data set can be described thus: in vivo inhibition of conversion of 1,2-^3 H-DHA to metabolites in flank organs of female hamsters. To be noted: topical 1200 μg/0.1 ml acetone to each flank organ for 3 days. The arrangement: species or system female Syrian Golden Hamster.
Excerpt: as §1
Hamster flank organs were accordingly used to test in vivo the androgenic inhibitory properties of pregnenolone.
Female Syrian Golden Hamsters were used in this experiment. […]
On the afternoon of day 3, an intracardial injection of 1,2-^3 H-DHA (5μCi/0.1 ml saline buffer solution) was given to both experimental groups anesthetized with ether. […] Each organ was then placed in a 16 mm×150 mm test tube containing methanol and was homogenized, extracted and analyzed for steroid metabolites by separating the metabolites using thin layer chromatography as described above, scraping the thus separated metabolites from the thin layer plates, and quantitating using a scintillation counter. […]
Results are shown in FIG. 2 expressed as DPM/mg tissue.

A short description of data set [7]: solubility of pregnenolone. In kind it is physicochemical.
In data set [8] the test system is 3β-hydroxysteroid dehydrogenase Δ^4-5 -isomerase (3βHSD). Nature of the data set: in vitro inhibition of 3βHSD conversion of DHA in rat preputial gland homogenate. In kind it is biochemical, rat (female Sprague-Dawley). Conditions: rat preputial gland homogenate (2 mg protein), 1,2-^3 H-DHA + 100 nmoles DHA, 37° C.; four separate incubations; inhibitor concentration not given. As for the experimental part: To assess the androgen inhibiting activity of pregnenolone, rat preputial gland was employed to investigate the in vitro androgenic action of DHA. […] A pair of the glands are situated in the prepuce of the rat of either sex weighing between 125-200 mg in an average 200 g rat, being slightly larger in the male animal. The animals employed were female Sprague-Dawley rats, 10-12 weeks old and weighing 225-300 g.
The experimental format, stated broadly, was to excise preputial glands from rats and prepare a homogenate therefrom. […] The metabolites were quantitated by removal from the thin layer plate and counting in a scintillation counter. By determining the extent of metabolite formation, the extent of inhibition of 3βHSD could be correspondingly determined. […]
Experiments were initially conducted to ensure that DHA and its metabolites could be separated chromatographically. […] The position of the steroid can be readily traced with this method. […] Elution and quantitative evaluation of steroids can be effected after removal of the iodine. […] For quantitation the plates were then scraped in 1 cm sections for radioassay of ^3 H in a Packard Tri-Carb liquid scintillation counter. Silica gel H blanks and ^3 H-standards (Packard Instrument Co.) were also counted. […]

Data set [9] deals with acne vulgaris. In kind it is in vivo, human. As for the experimental part:
The following experiment was conducted and is a typical trial. In a double-blind clinical trial 23 patients with acne vulgaris volunteered to participate. Fifteen patients (11 females and 4 males) were given a 1% solution of pregnenolone dissolved in isopropanol containing 1% glycerol, and 8 patients (5 females and 3 males) were given a 1% solution of glycerol in isopropanol. Neither the patients nor the attending dermatologist knew whether or not the dispensed solution contained pregnenolone. The patients were instructed to stop using their previous medications for two weeks and then to apply the given solution to their faces twice daily. They were reexamined biweekly.

The mark [10] stands for this setting: 1% pregnenolone in isopropanol containing 1% glycerol, twice daily, twelve weeks, 4 of 15 patients.

In the case of `CC1=C(/C=C/C(C)=C/C=C/C(C)=C\C(=O)O)C(C)(C)CCC1` [Accutane, 13-Cis retinoic acid], the “blood lipids and liver toxicity” value in [1] (internal use) is “alters blood lipids and causes liver toxicity”.
Consider `C[C@]12CC[C@H](O)CC1=CC[C@@H]1[C@@H]2CC[C@]2(C)C(=O)CC[C@@H]12` [DHA, dehydroepiandrosterone], for which, in data set [2], the “metabolism in the skin” value is on record as “readily metabolized in the skin to form potent androgenic steroids”. In data set [3], the “androgenic / hormonal activity” value is given as “only weak androgenic activity”. For the same compound, the “stimulation of flank organs” value in data set [4] is “not only a local stimulation, but stimulation of both flank organs, hence systemic stimulation”.
Take `C[C@]12CCC(=O)C[C@@H]1CC[C@@H]1[C@@H]2CC[C@]2(C)[C@@H](O)CC[C@@H]12` [DHT, dihydrotestosterone]: the “sebaceous gland growth and pigmentation of flank organ” value in [5] is “unilateral stimulation of sebaceous gland growth and pigmentation”.
Turning to `C[C@]12CCC(=O)C=C1CC[C@@H]1[C@@H]2CC[C@]2(C)C(=O)CC[C@@H]12` [androstenedione, Δ^4 -androstenedione], the “sebaceous gland growth and pigmentation of flank organ” value in data set [5] was “unilateral stimulation of sebaceous gland growth and pigmentation”.
As to `C[C@]12CC[C@@H](O)C[C@@H]1CC[C@@H]1[C@@H]2CC[C@]2(C)C(=O)CC[C@@H]12` [androsterone], in data set [5], the “sebaceous gland growth and pigmentation of flank organ” value is reported as “did not cause flank organ growth or increased pigmentation”.
On to `O=C(OOC(=O)c1ccccc1)c1ccccc1` [benzoyl peroxide], for which the “skin irritation and peeling” value in data set [1] was “irritates the skin and causes the skin to peel”.
As for `C[C@]12CC[C@H](O)C[C@@H]1CC[C@@H]1[C@@H]2CC[C@]2(C)C(=O)CC[C@@H]12` [epiandrosterone], the “sebaceous gland growth and pigmentation of flank organ” value in data set [5] was “did not cause flank organ growth or increased pigmentation”.
With `C[C@]12CCC(=O)C=C1CC[C@@H]1[C@@H]2CC[C@@]2(C)[C@H]1CC[C@]2(C)O` [methyltestosterone], the “sebaceous gland growth and pigmentation of flank organ” value in data set [5] was “unilateral stimulation of sebaceous gland growth and pigmentation”.
Regarding `CC(=O)[C@H]1CC[C@H]2[C@@H]3CC=C4C[C@@H](O)CC[C@]4(C)[C@H]3CC[C@]12C` [pregnenolone, Δ^5-pregnene-3β-ol-20-one], the “androgenic / hormonal activity” value in data set [3] is on record as “no known hormonal activity of its own”. Besides, the “total metabolites converted from 1,2-^3 H-DHA, treated versus control” value in data set [6] (DHA-stimulated, 1 hour after intracardial ^3 H-DHA (5 μCi)) is “Significant differences (P<0.01)”. Moreover, the “formation of testosterone, DHT and androstanediol, control versus treated” value in [6] (DPM/mg tissue in FIG. 2) was “Control hamsters, not treated with inhibitor, show greater formation of testosterone, DHT and androstanediol”. For the same compound, in [7] (alcohols, such as isopropanol or mixtures with longer (C4 -C10) alkane or alkene chains), the solubility in alcohols result is “soluble”. In data set [7] (water), the solubility in water entry was “insoluble in water”. In addition, in [8], the “inhibition of 3βHSD for DHA (percentage of total Δ^4 -3-keto product formed in absence of inhibitor)” value was 91-92%. In data set [9] (1% pregnenolone in isopropanol containing 1% glycerol, twice daily, twelve weeks, 2 of 15 patients), the “patients with reduction of oiliness” value is listed as 13%. In data set [9] (setting [10]), the “patients with no change in lesions or oiliness” value worked out at 26%; the “patients with slight reduction of the number of lesions and a reduction in the oiliness of the skin” value stood at 26%. For the same compound, the “patients with definite improvement, with reduction in the size and number of lesions” value in data set [9] (1% pregnenolone in isopropanol containing 1% glycerol, twice daily, twelve weeks, 5 of 15 patients) was found to be 33%. In addition, the “beneficial effect in acne; prevention of new lesions” value in [9] (conclusion of the trial, continued use) is “beneficial effect in the treatment of acne, and that continued use of pregnenolone prevents the development of new lesions”. Also, in data set [9] (human, in vivo), the “irritation or discomfort caused by topical application” value is “no complaint of irritation or discomfort”. For the same compound, the “efficacy and acceptability compared with previous medications (patients' claims)” value in [9] (patients who had used other medications previously) is “more effective and more acceptable”.
For the compound `CC(=O)[C@H]1CC[C@H]2[C@@H]3CCC4=CC(=O)CC[C@]4(C)[C@H]3CC[C@]12C` [progesterone], the “sebaceous gland growth and pigmentation of flank organ” value in data set [5] is recorded as “did not cause flank organ growth or increased pigmentation”.
Take `CC1=C(/C=C/C(C)=C/C=C/C(C)=C/C(=O)O)C(C)(C)CCC1` [retinoic acid]: the “skin irritation and peeling” value in data set [1] is “irritates the skin and causes the skin to peel”.
As for `C[C@]12CC[C@H]3[C@@H](CCC4=CC(=O)CC[C@@]43C)[C@@H]1CC[C@@H]2O` [testosterone], in data set [5], the “sebaceous gland growth and pigmentation of flank organ” value is “unilateral stimulation of sebaceous gland growth and pigmentation”.
